Experimental data published in patent US20040152674A1, “Pharmaceutically active compounds and methods of use thereof” (Trustees of Tufts College, priority 1998, published 2004).

What was measured:
Test in all cases: MIC by broth dilution method (Table 4)
Format in all cases: cell-based
Parameters in all cases: unit not given here
E. faecalis ATCC9790 = details: E. faecalis Tc^r ATCC9790; 18 hours
Procedure: (§1) The minimum inhibitory concentration, the lowest concentration of drug that inhibits bacterial growth at 18 hours at their appropriate temperature, is determined by the broth dilution method using L-broth or Muller-Hinton broth. The Muller-Hinton broth was cation-adjusted accordingly and all bacteriological methods were performed as was described by Waitz, J. A., National Commision for Clinical Laboratory Standards Document M7-A2, vol.10, no. 8, pp.13-20, 2nd edition, Villanova, Pa. (1990). The organisms tested represent gram-positive and gram-negative bacterial species that are susceptible to tetracyclines or are resistant to tetracyclines due to the ability to efflux tetracyclines or which confer resistance by ribosomal protection mechanisms. The clinical strains used are either susceptible to tetracyclines or are resistant to them by either drug efflux or ribosomal protection.

S. aureus ATCC12715 = details: S. aureus Tc^r ATCC12715; 18 hours
Procedure: as §1

S. aureus MRSA5 = S. aureus MRSA5 Tc^r; 18 hours
Procedure: as §1

S. aureus RN4250 = S. aureus RN4250 Tc^r; 18 hours
Procedure: as §1

S. aureus RN450 = S. aureus RN450 Tc^s; 18 hours
Procedure: as §1

E. coli D31m4(pHCM1) = E. coli D31m4(pHCM1) Tcr; 18 hours
Procedure: as §1

E. coli D31m4 = details: E. coli D31m4* Tc^r, lipopolysaccharide-deficient mutant; 18 hours
Procedure: as §1

E. faecalis pAM211 = E. faecalis pAM211 Tc^r; 18 hours
Procedure: as §1

E. faecalis pMV158 = E. faecalis pMV158 Tc^r; 18 hours
Procedure: as §1

SMILES | Antibacterial activity (minimum inhibitory concentration) (E. faecalis ATCC9790) | Antibacterial activity (minimum inhibitory concentration) (S. aureus ATCC12715) | Antibacterial activity (minimum inhibitory concentration) (S. aureus MRSA5) | Antibacterial activity (minimum inhibitory concentration) (S. aureus RN4250) | Antibacterial activity (minimum inhibitory concentration) (S. aureus RN450) | Antibacterial activity (minimum inhibitory concentration) (E. coli D31m4(pHCM1)) | Antibacterial activity (minimum inhibitory concentration) (E. coli D31m4) | Antibacterial activity (minimum inhibitory concentration) (E. faecalis pAM211) | Antibacterial activity (minimum inhibitory concentration) (E. faecalis pMV158)
CC1c2ccc(C(C)(C)CCCC#N)c(O)c2C(=O)C2=C(O)C3(O)C(=O)C(C(N)=O)=C(O)C(N(C)C)C3C(O)C21 (stereo not drawn) [L, [4S-(4alpha,12aalpha)]-9-[4′-(1′-cyano-4′-methyl)pentyl]-4-(dimethylamino)-1,4,4a,5,5a,6,11,12a-octahydro-3,5,10,12,12a-pentahydroxy-6-methyl-1,11-dioxo-2-naphthacenecarboxamide] | 3.12 | 6.25 | 6.25 | 3.12 | 1.56 |  |  |  | 
CCC(=O)OC1C2C(=C(O)C3(O)C(=O)C(C(N)=O)=C(O)C(N(C)C)C13)C(=O)c1c(ccc(C(C)(C)C)c1O)C2C (stereo not drawn) [B, [4S-(4alpha,12aalpha)]-9-(tert-butyl)-4-(dimethylamino)-5-propionylcarbonyloxy-1,4,4a,5,5a,6,11,12a-octahydro-3,10,12,12a-tetrahydroxy-6-methyl-1,11-dioxo-2-naphthacenecarboxamide] | 1.56 | 1.56 | 3.12 | 0.78 | 0.39 | 6.25 | 6.25 | 0.78 | 0.39
CC1c2ccc(C3(C)CCC3)c(O)c2C(=O)C2=C(O)[C@]3(O)C(=O)C(C(N)=O)=C(O)[C@@H](N(C)C)C3C(O)C21 (stereo partly drawn) [G, [4S-(4alpha,12aalpha)]-9-[1′-(1′-methyl)cyclobutyl]-4-(dimethylamino)-1,4,4a,5,5a,6,11,12a-octahydro-3,5,10,12,12a-pentahydroxy-6-methyl-1,11-dioxo-2-naphthacenecarboxamide] | 0.78 | 3.12 | 0.08 | 3.12 | 1.56 | 6.25 | 6.25 |  | 
CC1c2ccc(C3(C)CCCCC3)c(O)c2C(=O)C2=C(O)[C@]3(O)C(=O)C(C(N)=O)=C(O)[C@@H](N(C)C)C3C(O)C21 (stereo partly drawn) [E, [4S-(4alpha,12aalpha)]-9-[1′-(1′-methyl)cyclohexyl]-4-(dimethylamino)-1,4,4a,5,5a,6,11,12a-octahydro-3,5,10,12,12a-pentahydroxy-6-methyl-1,11-dioxo-2-naphthacenecarboxamide] | 0.39 | 6.25 | 6.25 | 6.25 | 1.56 | 25 | 25 |  | 
CCCC(C)(C)c1ccc2c(c1O)C(=O)C1=C(O)[C@]3(O)C(=O)C(C(N)=O)=C(O)[C@@H](N(C)C)C3C(O)C1C2C (stereo partly drawn) [H, [4S-(4alpha,12aalpha)]-9-[2′-(2′-methyl)pentyl]-4-(dimethylamino)-1,4,4a,5,5a,6,11,12a-octahydro-3,5,10,12,12a-pentahydroxy-6-methyl-1,11-dioxo-2-naphthacenecarboxamide] | 0.78 | 0.78 | 0.39 | 0.39 | 0.08 | 1.56 | 50 | 0.78 | 0.78
CC1c2ccc(C(C)(C)CCC[N+](=O)[O-])c(O)c2C(=O)C2=C(O)[C@]3(O)C(=O)C(C(N)=O)=C(O)[C@@H](N(C)C)C3C(O)C21 (stereo partly drawn) [M, [4S-(4alpha,12a-alpha)]-9-[4′-(1′-nitro-4′-methyl)pentyl]-4-(dimethylamino)-1,4,4a,5,5a,6,11,12a-octahydro-3,5,10,12,12a-pentahydroxy-6-methyl-1,11-dioxo-2-naphthacenecarboxamide] | 0.78 | 1.56 | 0.78 | 0.78 | 3.12 |  | 12.5 | 0.78 | 0.78
CC1c2ccc(C(C)(C)CCCN3CCCC3)c(O)c2C(=O)C2=C(O)[C@]3(O)C(=O)C(C(N)=O)=C(O)[C@@H](N(C)C)C3C(O)C21 (stereo partly drawn) [K, [4S-(4alpha,12a-alpha)]-9-[4′-(1′-pyrrolidinyl-4′-methyl)pentyl]-4-(dimethylamino)-1,4,4a,5,5a,6,11,12a-octahydro-3,5,10,12,12a-pentahydroxy-6-methyl-1,11-dioxo-2-naphthacenecarboxamide] | 25 | 50 | 6.25 | 50 | 25 | 50 | 50 | 25 | 25
CC1c2ccc(C3(C)CCCC3)c(O)c2C(=O)C2=C(O)C3(O)C(=O)C(C(N)=O)=C(O)C(N(C)C)C3C(O)C21 (stereo not drawn) [F, [4S-(4alpha,12aalpha)]-9-[1′-(1′-methyl)cyclopentyl]-4-(dimethylamino)-1,4,4a,5,5a,6,11,12a-octahydro-3,5,10,12,12a-pentahydroxy-6-methyl-1,11-dioxo-2-naphthacenecarboxamide] | 0.78 | 0.78 | 0.08 | 0.39 | 0.39 | 1.56 | 0.78 | 0.39 | 0.08
CC1c2ccc(C(C)(C)C)c(O)c2C(=O)C2=C(O)[C@]3(O)C(=O)C(C(N)=O)=C(O)[C@@H](N(C)C)C3C(OC(=O)C3CCC3)C21 (stereo partly drawn) [D, [4S-(4alpha,12aalpha)]-9-(tert-butyl)-4-(dimethylamino)-5-cyclobutylcarbonyloxy-1,4,4a,5,5a,6,11,12a-octahydro-3,10,12,12a-tetrahydroxy-6-methyl-1,11-dioxo-2-naphthacenecarboxamide] | 0.78 | 3.12 | 1.56 | 3.12 | 0.78 | 50 | 50 |  | 50
CC1c2ccc(C(C)(C)C)c(O)c2C(=O)C2=C(O)[C@]3(O)C(=O)C(C(N)=O)=C(O)[C@@H](N(C)C)C3C(O)C21 (stereo partly drawn) [A, [4S-(4alpha,12aalpha)]-9-(tert-butyl)-4-(dimethylamino)-1,4,4a,5,5a,6,11,12a-octahydro-3,5,10,12,12a-pentahydroxy-6-methyl-1,11-dioxo-2-naphthacenecarboxamide] | 1.56 | 3.12 | 3.12 | 1.56 | 0.78 |  |  |  | 
